According to patent publication US20200038399A1, “FORMULATIONS, METHODS, KIT, AND DOSAGE FORMS FOR TREATING BACTERIAL INFECTION” (Motif BioSciences Inc., priority 2016, published 2020):
Positions of bridges follow the written chain, without caps; N, C: chain ends. Non-standard residues stand in square brackets, D forms with d. Residues, ends and D or L forms follow the SMILES beside them. *: point of attachment. Ileψ(thiazoline)Cys = CC[C@H](C)[C@H](N)C1=N[C@H](C(=O)*)CS1; dOrn = NCCC[C@@H](N)C(=O)O

Assays:
S. aureus 101 [1] = assay: MIC determination; format: cell-based, Staphylococcus aureus; conditions: Staphylococcus aureus, 101, 18 h; read-out: Minimum inhibitory concentrations (MIC)
Protocol: (§1) Minimum inhibitory concentration (MIC) determination.
(§2) In order to choose the appropriate concentrations to be tested in the checkerboard experiments, minimum inhibitory concentrations (MICs) were determined first. […] Table 6) in microtiter plates. Stock solutions (10 mg/ml) of reference antibiotics were prepared in DMSO (except for tobramycin, gentamicin, lomefloxacin, tetracycline) and stored at 4° C. The bacteria were grown in Mueller-Hinton Broth (BBL Mueller-Hinton Broth II, cation adjusted). S. pneumoniae was grown in Mueller-Hinton Broth supplemented with 5% (v/v) lysed sheep blood. For the growth of H. influenzae HTM (Haemophilus test medium) was used containing Mueller-Hinton broth, yeast extract ([…], Difco) and supplemented with NAD and hematin (HTM Supplement, Oxoid SR0158E). M. catarrhalis was grown in Brain Heart Infusion medium (Oxoid). The bacteria were incubated for 18 hours at 37° C. in ambient air except for S. pneumoniae, H. influenzae and M. catarrhalis, which were incubated in the presence of 5% CO2. The MIC was determined as the lowest concentration of an individual drug that lead to no visible growth.

S. pneumoniae 1/1 [2] = assay: MIC determination; format: cell-based, Streptococcus pneumoniae; conditions: Streptococcus pneumoniae; S. pneumoniae 1/1; 18 hours at 37° C., 5% CO2; read-out: Minimum inhibitory concentrations (MIC)
Protocol: as §1, §2

[3] = tested on: Haemophilus influenzae ATCC 49766; assay: MIC determination; format: cell-based; conditions: Haemophilus influenzae, ATCC49766; H. Influenza 49766; 18 hours at 37° C., 5% CO2; read-out: Minimum inhibitory concentrations (MIC)
Protocol: as §1, §2

[4] = tested on: Klebsiella pneumoniae ATCC 33495; assay: MIC determination; format: cell-based; conditions: Klebsiella pneumoniae, ATCC33495; K. pneumonia 33495; 18 hours at 37° C.; read-out: Minimum inhibitory concentrations (MIC)
Protocol: as §1, §2

[5] = tested on: Moraxella catarrhalis RA 21; assay: MIC determination; format: cell-based; conditions: Moraxella catarrhalis, RA21; M. catarrhalis RA 21; 18 hours at 37° C., 5% CO2; read-out: Minimum inhibitory concentrations (MIC)
Protocol: as §1, §2

[6] = tested on: Staphylococcus aureus ATCC 25923; assay: MIC determination; format: cell-based; conditions: Staphylococcus aureus, ATCC25923; S. aureus 25923; 18 hours at 37° C.; read-out: Minimum inhibitory concentrations (MIC)
Protocol: as §1, §2

[7] = tested on: Streptococcus pneumoniae ATCC 49619; assay: MIC determination; format: cell-based; conditions: Streptococcus pneumoniae, ATCC49619; S. pneumoniae 49619; 18 hours at 37° C., 5% CO2; read-out: Minimum inhibitory concentrations (MIC)
Protocol: as §1, §2

[8] = tested on: Haemophilus influenzae ATCC 49766; assay: checkerboard synergy assay with iclaprim; format: cell-based; conditions: antibiotic in combination with iclaprim; H. influenzae 49766
Protocol: (§3) The synergistic potential of iclaprim against Gram-positive and Gram-negative bacteria was determined using the checkerboard assay as described in Eliopoulos GM and Moellering, Jr. RC (1991), Antimicrobial combinations, pp. 432-492, in V. Lorian (ed.), Antibiotics in laboratory medicine, 3rd Ed., The Williams & Wilkins Co., Baltimore, the entire disclosure of which is herein incorporated by reference, allowing multiple test concentrations of iclaprim to be assayed in the presence of various concentrations of the other antibiotic in microtiter plates. The same growth media and conditions were used as described in 3.2 below.
(§4) Two different dilutions were used for iclaprim depending on the MIC determined for the bacterium. […] Iclaprim and the other antibiotic being tested were also dispensed alone in the last row and in the last column, respectively, as controls.
(§5) The Fractional Inhibitory Concentrations (FIC) for each added agent were calculated and used to determine the sum of FIC (ΣFIC) indicative of the synergistic potential of a given combination as described in Veyssier P. (1999), Inhibiteurs de la dihydrofolate reductase, nitrohétérocycles (furanes) et 8-hydroxyquinoleines, pp. 995-1027, in A. Bryskier (ed.), Antibiotiques agents antibatériens et antifongiques, 1st Ed., Ellipses Edition Marketing SA, Paris, the entire disclosure of which is herein incorporated by reference. Synergy was defined whereby the ΣFIC was <0.5, indifference (no synergy nor antagonism) whereby ΣFIC was ≥0.5 but ≤4, and antagonism whereby ΣFIC was >4. Additivity as a special form of indifference was defined whereby the ΣFIC was ≥0.5 but <1, for example as described in Stevens, D L et al. (1998), In vitro antimicrobial effects of various combinations of penicillin and clindamycin against four strains of Streptococcus pyogenes, J. Antimicrob. Chemother. 42: 1266-1268, the entire disclosure of which is herein incorporated by reference.

[9] = tested on: Klebsiella pneumoniae ATCC 33495; assay: checkerboard synergy assay with iclaprim; format: cell-based; conditions: antibiotic in combination with iclaprim; K. pneumoniae 33495
Protocol: as §3, §4, §5

[10] = tested on: Moraxella catarrhalis RA 21; assay: checkerboard synergy assay with iclaprim; format: cell-based; conditions: antibiotic in combination with iclaprim; M. catarrhalis RA 21
Protocol: as §3, §4, §5

[11] = tested on: Staphylococcus aureus ATCC 25923; assay: checkerboard synergy assay with iclaprim; format: cell-based; conditions: antibiotic in combination with iclaprim; S. aureus 25923
Protocol: as §3, §4, §5

[12] = tested on: Streptococcus pneumoniae ATCC 49619; assay: checkerboard synergy assay with iclaprim; format: cell-based; conditions: antibiotic in combination with iclaprim; S. pneumoniae 49619
Protocol: as §3, §4, §5

S. aureus 101 [13] = assay: checkerboard synergy assay with iclaprim; format: cell-based, Staphylococcus aureus; conditions: antibiotic in combination with iclaprim
Protocol: as §3, §4, §5

S. pneumoniae 1/1 [14] = assay: checkerboard synergy assay with iclaprim; format: cell-based, Streptococcus pneumoniae; conditions: antibiotic in combination with iclaprim
Protocol: as §3, §4, §5

Row | SMILES | MIC (S. aureus 101 [1]) [µg/mL] | MIC (S. pneumoniae 1/1 [2]) [µg/mL] | MIC [3] [µg/mL] | MIC [4] [µg/mL] | MIC [5] [µg/mL] | MIC [6] [µg/mL] | MIC [7] [µg/mL] | Con (Conclusion) [8] | Σ FIC [8] | Con (Conclusion) [9] | Σ FIC [9] | Con (Conclusion) [10] | Σ FIC [10] | Σ FIC [11] | Σ FIC [12] | Σ FIC (S. aureus 101 [13]) | Σ FIC (S. pneumoniae 1/1 [14])
1 | COc1ccc(C[C@H](N)C(=O)N[C@H]2[C@@H](O)[C@H](n3cnc4c(N(C)C)ncnc43)O[C@@H]2CO)cc1 [Puromycin] | 16 | 8 | 8 | > 128 | 4 | 32 | 8 | Ind (Indifference (Ind)) | 1.06-1.50 | Ind (Indifference (Ind)) | 1.01-1.50 | Ind (Indifference (Ind)) | 1.06-1.50 | 1.06-1.50 | 0.63-1.25 | 1.13-1.50 | 1.13-1.50
2 | CC[C@H](C)[C@H](N)C1=N[C@H](C(=O)N[C@@H](CC(C)C)C(=O)N[C@H](CCC(=O)O)C(=O)N[C@H](C(=O)N[C@H]2CCCCNC(=O)[C@H](CC(N)=O)NC(=O)[C@@H](CC(=O)O)NC(=O)[C@H](Cc3cnc[nH]3)NC(=O)[C@@H](Cc3ccccc3)NC(=O)[C@H]([C@@H](C)CC)NC(=O)[C@@H](CCCN)NC2=O)[C@@H](C)CC)CS1 [Bacitracin] ({Ileψ(thiazoline)Cys}-L[dE]IK[dOrn]I[dF]H[dD]N; lactam 4-C) | 32 | 8 | > 128 | > 128 | 8 | > 128 | 32 | Ind (Indifference (Ind)) | 1.01-1.50 | Ind (Indifference (Ind)) | 1.01-1.50 | Ad (Additivity (Ad)) | 0.56-1.25 | 0.74-1.13 | 0.75-1.13 | 0.75-1.13 | 0.51-1.06
3 | NC(=O)c1cc[n+](CC2=C(C(=O)O)N3C(=O)[C@@H](NC(=O)[C@@H](c4ccccc4)S(=O)(=O)[O-])[C@H]3SC2)cc1 [Cefsulodine, Cefsulodin] | 64 | > 128 | > 128 | > 128 | > 128 | 64 | 16 | Ind (Indifference (Ind)) | 1.01-1.50 | Ind (Indifference (Ind)) | 1.01-1.50 | Ind (Indifference (Ind)) | 1.00-1.25 | 1.00-1.25 | 1.13-1.50 | 1.00-1.25 | 1.01-1.50
4 | CCC[C@@H]1C[C@@H](C(=O)N[C@@H]([C@H]2O[C@H](SC)[C@H](O)[C@@H](O)[C@H]2O)[C@H](C)Cl)N(C)C1 [Clindamycin] | 0.25 | 0.125 | 8 | > 128 | 4 | 0.25 | 0.125 | Ind (Indifference (Ind)) | 1.13-1.50 | Ind (Indifference (Ind)) | 1.01-1.50 | Ind (Indifference (Ind)) | 1.00-1.25 | 2.02-2.48 | 1.00-1.25 | 2.03-2.50 | 0.63-1.06
